Laboratory results from the NIST ThermoML archive (doi:10.1021/je050316s).
“And” between values parts separate entries of the source, which are not always exact repeats. Identical values can stand only once. Numbers after ± are expanded uncertainties. Each block holds one compound with its values, some of them ahead of it.

Legend:
[1] = xn = mol fraction of the nth substance listed; conditions: 303.15 K, 101.33 kPa, Liquid
[2] = activity coefficient (dimensionless); of the first substance listed, at infinite dilution; xn = mol fraction of the nth substance listed; conditions: Liquid, Differential ebulliometry, x1 = 0
[3] = refractive index (Na D-line) (dimensionless); conditions: 101.33 kPa, Liquid, Standard Abbe refractometry
[4] = Liquid; for mass density: 101.33 kPa

mass density ([1]; x2 = 0): 710.05 ± 0.38 kg/m3
SMILES: CCCCCCCCC [nonane] + NC1CCCCC1

SMILES: NC1CCCCC1 [cyclohexylamine] + Nc1ccccc1
activity coefficient ([2]; 383.15 K): 0.84 ± 0.05
activity coefficient ([2]; 393.15 K): 0.94 ± 0.06
activity coefficient ([2]; 403.15 K): 1.03 ± 0.06
mass density ([1]; x1 = 0.1161): 992.51 ± 0.25 kg/m3
mass density ([1]; x1 = 0.1936): 979.58 ± 0.23 kg/m3
mass density ([1]; x1 = 0.281): 965.35 ± 0.22 kg/m3
mass density ([1]; x1 = 0.3837): 949.2 ± 0.21 kg/m3
mass density ([1]; x1 = 0.4907): 932.82 ± 0.21 kg/m3
mass density ([1]; x1 = 0.5932): 917.38 ± 0.21 kg/m3
mass density ([1]; x1 = 0.7087): 900.24 ± 0.21 kg/m3
mass density ([1]; x1 = 0.7738): 890.69 ± 0.21 kg/m3
mass density ([1]; x1 = 0.8759): 875.75 ± 0.22 kg/m3
mass density ([1]; x1 = 1): 858.2 ± 0.23 kg/m3

SMILES: Cc1ccccc1 [toluene] + NC1CCCCC1
activity coefficient ([2]; 353.15 K): 1.14 ± 0.07
activity coefficient ([2]; 373.15 K): 1.13 ± 0.07
activity coefficient ([2]; 393.15 K): 1.06 ± 0.06

SMILES: NC1CCCCC1 [cyclohexylamine]
refractive index ([3]; 288.15 K): 1.4624 ± 0.0005
mass density ([4]; 303.15 K): 858.2 ± 0.18 kg/m3
vapor or sublimation pressure ([4]; 333.15 K): 7.51 ± 0.5 kPa
vapor or sublimation pressure ([4]; 363.15 K): 25.59 ± 0.58 kPa

SMILES: NC1CCCCC1 [cyclohexylamine] + CCCCCCCCC
mass density ([1]; x1 = 0.0998): 718.79 ± 0.37 kg/m3
mass density ([1]; x1 = 0.1994): 728.47 ± 0.36 kg/m3
mass density ([1]; x1 = 0.301): 739.41 ± 0.35 kg/m3
mass density ([1]; x1 = 0.401): 751.43 ± 0.34 kg/m3
mass density ([1]; x1 = 0.4998): 764.51 ± 0.32 kg/m3
mass density ([1]; x1 = 0.6006): 779.38 ± 0.31 kg/m3
mass density ([1]; x1 = 0.7): 795.69 ± 0.29 kg/m3
mass density ([1]; x1 = 0.7955): 813.15 ± 0.28 kg/m3
mass density ([1]; x1 = 0.8999): 834.62 ± 0.26 kg/m3
mass density ([1]; x1 = 1): 858.2 ± 0.23 kg/m3

SMILES: Nc1ccccc1 [aniline]
refractive index ([3]; 293.15 K): 1.5862 ± 0.0004
mass density ([4]; 293.15 K): 1021.72 ± 0.27 kg/m3
mass density ([4]; 303.15 K): 1012.94 ± 0.27 kg/m3

SMILES: NC1CCCCC1 [cyclohexylamine] + Cc1ccccc1
activity coefficient ([2]; 353.15 K): 1.19 ± 0.07
activity coefficient ([2]; 373.15 K): 1.12 ± 0.07

refractive index ([3]; 293.15 K): 1.4055 ± 0.0004
mass density ([4]; 293.15 K): 719.13 ± 0.38 kg/m3
mass density ([4]; 303.15 K): 710.05 ± 0.38 kg/m3
SMILES: CCCCCCCCC [nonane]

refractive index ([3]; 293.15 K): 1.4162 ± 0.0004
mass density ([4]; 303.15 K): 732.93 ± 0.36 kg/m3
SMILES: CCCCCCCCCCC [undecane]
mass density ([4]; 293.15 K): 740.11 ± 0.28 kg/m3 and 740.11 ± 0.36 kg/m3

SMILES: NC1CCCCC1 [cyclohexylamine] + CCCCCCCCCCC
mass density ([1]; x1 = 1): 858.2 ± 0.23 kg/m3

mass density ([1]; x2 = 0): 732.93 ± 0.36 kg/m3
mass density ([1]; x2 = 0.1): 738.82 ± 0.35 kg/m3
mass density ([1]; x2 = 0.2172): 747 ± 0.34 kg/m3
mass density ([1]; x2 = 0.3066): 754.16 ± 0.34 kg/m3
mass density ([1]; x2 = 0.4011): 762.69 ± 0.33 kg/m3
mass density ([1]; x2 = 0.5005): 772.99 ± 0.32 kg/m3
mass density ([1]; x2 = 0.5997): 784.83 ± 0.3 kg/m3
mass density ([1]; x2 = 0.7005): 798.79 ± 0.29 kg/m3
mass density ([1]; x2 = 0.7998): 814.98 ± 0.27 kg/m3
mass density ([1]; x2 = 0.8998): 834.57 ± 0.26 kg/m3
SMILES: CCCCCCCCCCC [undecane] + NC1CCCCC1

SMILES: NC1CCCCC1 [cyclohexylamine] + O
mass density ([1]; x1 = 0.1002): 956.7 ± 0.15 kg/m3
mass density ([1]; x1 = 0.197): 935.34 ± 0.16 kg/m3
mass density ([1]; x1 = 0.2237): 930.93 ± 0.16 kg/m3
mass density ([1]; x1 = 0.3021): 919.43 ± 0.17 kg/m3
mass density ([1]; x1 = 0.397): 908.71 ± 0.18 kg/m3
mass density ([1]; x1 = 0.5016): 897.85 ± 0.19 kg/m3
mass density ([1]; x1 = 0.6037): 888.39 ± 0.2 kg/m3
mass density ([1]; x1 = 0.6931): 880.7 ± 0.21 kg/m3
mass density ([1]; x1 = 0.7801): 873.76 ± 0.21 kg/m3
mass density ([1]; x1 = 0.9004): 864.97 ± 0.22 kg/m3
mass density ([1]; x1 = 1): 858.2 ± 0.23 kg/m3

SMILES: NC1CCCCC1 [cyclohexylamine] + CCCCCCCC
activity coefficient ([2]; 353.15 K): 1.61 ± 0.1
activity coefficient ([2]; 373.15 K): 1.5 ± 0.09
activity coefficient ([2]; 393.15 K): 1.42 ± 0.09
mass density ([1]; x1 = 0.1036): 705.94 ± 0.38 kg/m3
mass density ([1]; x1 = 0.2003): 717.44 ± 0.37 kg/m3
mass density ([1]; x1 = 0.3006): 730.4 ± 0.36 kg/m3
mass density ([1]; x1 = 0.4085): 745.58 ± 0.34 kg/m3
mass density ([1]; x1 = 0.5001): 759.5 ± 0.33 kg/m3
mass density ([1]; x1 = 0.5991): 775.85 ± 0.31 kg/m3
mass density ([1]; x1 = 0.6998): 793.85 ± 0.29 kg/m3
mass density ([1]; x1 = 0.7503): 803.55 ± 0.28 kg/m3
mass density ([1]; x1 = 0.8018): 813.83 ± 0.27 kg/m3
mass density ([1]; x1 = 0.8502): 823.95 ± 0.27 kg/m3
mass density ([1]; x1 = 1): 858.2 ± 0.23 kg/m3

SMILES: NC1CCCCC1 [cyclohexylamine] + CCc1ccccc1
activity coefficient ([2]; 353.15 K): 1.13 ± 0.07
activity coefficient ([2]; 373.15 K): 1.09 ± 0.07
activity coefficient ([2]; 393.15 K): 1.06 ± 0.06

mass density ([1]; x2 = 0): 722.54 ± 0.38 kg/m3
SMILES: CCCCCCCCCC [decane] + NC1CCCCC1

refractive index ([3]; 298.15 K): 1.3853 ± 0.0004
mass density ([4]; 298.15 K): 679.43 ± 0.44 kg/m3
mass density ([4]; 303.15 K): 675.32 ± 0.44 kg/m3
SMILES: CCCCCCC [heptane]

activity coefficient ([2]; 353.15 K): 1.18 ± 0.07
activity coefficient ([2]; 373.15 K): 1.16 ± 0.07
activity coefficient ([2]; 393.15 K): 1.13 ± 0.07
SMILES: CCc1ccccc1 [ethylbenzene] + NC1CCCCC1

SMILES: Nc1ccccc1 [aniline] + NC1CCCCC1
mass density ([1]; x2 = 0): 1012.94 ± 0.27 kg/m3

SMILES: NC1CCCCC1 [cyclohexylamine] + CCCCCCC
mass density ([1]; x1 = 0.1009): 689.34 ± 0.43 kg/m3
mass density ([1]; x1 = 0.1999): 703.99 ± 0.41 kg/m3
mass density ([1]; x1 = 0.3006): 719.71 ± 0.39 kg/m3
mass density ([1]; x1 = 0.3983): 735.92 ± 0.37 kg/m3
mass density ([1]; x1 = 0.5): 753.83 ± 0.35 kg/m3
mass density ([1]; x1 = 0.5999): 772.37 ± 0.33 kg/m3
mass density ([1]; x1 = 0.6989): 791.79 ± 0.31 kg/m3
mass density ([1]; x1 = 0.7996): 812.68 ± 0.28 kg/m3
mass density ([1]; x1 = 0.8993): 834.6 ± 0.26 kg/m3
mass density ([1]; x1 = 1): 858.2 ± 0.23 kg/m3

refractive index ([3]; 298.15 K): 1.3946 ± 0.0004
mass density ([4]; 298.15 K): 698.49 ± 0.39 kg/m3
mass density ([4]; 303.15 K): 694.67 ± 0.39 kg/m3
SMILES: CCCCCCCC [octane]

refractive index ([3]; 293.15 K): 1.3336 ± 0.0004
SMILES: O [water]

mass density ([1]; x2 = 0): 675.32 ± 0.44 kg/m3
SMILES: CCCCCCC [heptane] + NC1CCCCC1

SMILES: NC1CCCCC1 [cyclohexylamine] + CCCCCCCCCC
mass density ([1]; x1 = 0.1004): 729.74 ± 0.37 kg/m3
mass density ([1]; x1 = 0.2003): 737.86 ± 0.36 kg/m3
mass density ([1]; x1 = 0.3002): 746.97 ± 0.35 kg/m3
mass density ([1]; x1 = 0.3994): 757.29 ± 0.34 kg/m3
mass density ([1]; x1 = 0.4998): 768.9 ± 0.32 kg/m3
mass density ([1]; x1 = 0.5996): 782.09 ± 0.31 kg/m3
mass density ([1]; x1 = 0.6996): 797.14 ± 0.29 kg/m3
mass density ([1]; x1 = 0.8002): 814.52 ± 0.28 kg/m3
mass density ([1]; x1 = 0.9006): 834.67 ± 0.26 kg/m3
mass density ([1]; x1 = 1): 858.2 ± 0.23 kg/m3

activity coefficient ([2]; 353.15 K): 1.36 ± 0.08
activity coefficient ([2]; 373.15 K): 1.29 ± 0.08
activity coefficient ([2]; 393.15 K): 1.2 ± 0.07
mass density ([1]; x2 = 0): 694.67 ± 0.39 kg/m3
SMILES: CCCCCCCC [octane] + NC1CCCCC1
